The source made the active and inactive calls. No cut-off for these calls is given here. Numbered stars: 1 amine (or outer) side, 2 acyl side, 3 side chain; on linkers, the order of the positions; unused ones are H or OH. Square brackets hold non-standard residues; d marks the D form. Peptide text beside a SMILES is read from it. PheOxz = O=C(c1coc([C@H](Cc2ccccc2)N[*:1])n1)[*:2]; X2 = CC[C@H](C)[C@H](N[*:1])c1nc(C(=O)[*:2])co1; X1 = Cc1oc([C@@H](N[*:1])C(C)C)nc1C(=O)[*:2]
Assays:
RAW264.7 [1] = test: Cytotoxicity against mouse RAW264.7 cells at 21 uM; type: functional; settings: read-out: Survival
RAW264.7 [2] = test: Anti-inflammatory activity against mouse RAW264.7 cells assessed as inhibition of LPS-induced NO production after 24 hrs; type: functional, cell-based; settings: RAW264.7, 24 h
NCI-H460 = test: Cytotoxicity against human H460 cells; type: functional, cell-based
Neuro2a = test: Inhibition of voltage-gated sodium channel in mouse Neuro2a cells at 17.5 uM

Q: Which viability at 21 µM (RAW264.7 [1]) does the source give for `CCCCCCC[C@@H](C/C=C/CCC(=O)NC/C(=C/Cl)[C@@H]1C(=O)[C@H](O)C[C@@H](O)[C@]1(C)O)OC` [MALYNGAMIDE] here?
A: The viability at 21 µM was 94%.

Q: And the IC50 (RAW264.7 [2])?
A: Its IC50 is 8 µM.

Q: What about the IC50 (NCI-H460) of the same molecule?
A: The IC50 was 27.3 µM.

Q: What does the source list for `CC[C@H](C)[C@@H]1NC(=O)[C@@H]2CCCN2C(=O)[C@H](Cc2ccccc2)NC(=O)c2coc(n2)[C@H](Cc2ccccc2)NC(=O)c2nc(oc2C)[C@H](C(C)C)NC(=O)CNC(=O)[C@@H]2CCCN2C(=O)[C@@H]2CCCN2C(=O)[C@H](C)NC(=O)c2coc1n2` [WEWAKAZOLE] (cyclo(APPG[X1][PheOxz]FP[X2]))?
A: inhibition (Neuro2a): inactive; IC50 (NCI-H460): 10.1 µM

— ChEMBL document CHEMBL1667729, “Malyngamide 2, an oxidized lipopeptide with nitric oxide inhibiting activity from a Papua New Guinea marine cyanobacterium” (J Nat Prod, 2011)
